Results reported in patent US20120323164A1, “PHOTODYNAMIC THERAPY WITH PHTHALOCYANINES AND RADICAL SOURCES” (Case Western Reserve University, priority 2011, published 2012).
Values joined by “and” are separate entries in the source; they are usually repeats but may differ in a detail not shown here. Equal values may be shown once. Read-outs that look alike come from different tables or passages of the source. One block for each compound: values may come before it.

Tests used:
[1] = Photodecomposition of phthalocyanines in toluene under white light, no added radical source; conditions: for decomp (%): toluene ~9 μM, white light 1.2 kJ/s/m^2
Procedure: The distance between the cuvette face and the lamp filament was 30 cm. Determination of the beam intensity at the cuvette face was made with a powermeter (Powermax, pm10, Coherent, Santa Clara, Calif.). The beam intensity was checked before each measurement.
Solutions for the photodecomposition experiments were prepared as follows. […] This assumption was justified on the basis that all of the silicon phthalocyanines studied contained simple, unsubstituted phthalocyanine rings. The extinction coefficients of the aluminum phthalocyanines were assumed to be 2.3×10^5, the extinction coefficient of AlPcOSi(CH3)2(CH2)3N(CH3)2, Pc 1.
The absorbance of the Q band of the solution, A, was determined with a spectrophotometer (Lambda 25, Perkin Elmer, Shelton, Conn.; fused silica cuvettes, 1.00 cm, 3.5 mL, Fisher Scientific). From A, ε, the cuvette path length, b, and Beer's law, the concentration of the solution, c, was determined. The solution was then diluted with toluene to a concentration of 9.2 μM. To verify that this was the concentration of the solution, its absorbance was measured again.
In a typical determination, the solution (3.00 mL) was placed in a cuvette (1.00 cm, 3.5 mL, Fisher Scientific, Pittsburgh, Pa.) and its absorbance was measured with the spectrometer (Lambda 25) before irradiation and at 2, 4, 6 and 8 h.
where A0 is the absorbance of the solution at time 0, and At is the absorbance at time t.

[2] = Qualitative solubility in organic solvents
[3] = for decomp (%) of Pc 4: Pc 4 in toluene ~9 μM, white light 1.2 kJ/s/m^2
Procedure: (§1) The beam intensity was checked before each measurement.
(§2) Solutions for the photodecomposition experiments were prepared as follows.

[4] = Photodecomposition of Al and Si phthalocyanines in toluene in the presence of squalene under white light; assay type: physicochemical; conditions: toluene ~9 μM, squalene 1:1000 mole ratio, white light 1.2 kJ/s/m^2, air
Procedure: as §1, §2

[5] = time 2 h, radiation 86 kJ/mol × 10^−6, no added alkene
[6] = time 4 h, radiation 172 kJ/mol × 10^−6, no added alkene
[7] = time 6 h, radiation 258 kJ/mol × 10^−6, no added alkene
[8] = time 8 h, radiation 344 kJ/mol × 10^−6, no added alkene
[9] = time 0 h, alkene 1:100 mole ratio
[10] = time 0 h, alkene 1:1000 mole ratio
[11] = time 2 h, alkene 1:100 mole ratio
[12] = time 2 h, alkene 1:1000 mole ratio
[13] = time 4 h, alkene 1:100 mole ratio
[14] = time 4 h, alkene 1:1000 mole ratio
[15] = time 6 h, alkene 1:100 mole ratio
[16] = time 6 h, alkene 1:1000 mole ratio
[17] = time 8 h, alkene 1:100 mole ratio
[18] = time 8 h, alkene 1:1000 mole ratio
[19] = time 2 h, radiation 86 kJ/mol × 10^−6
[20] = time 4 h, radiation 172 kJ/mol × 10^−6
[21] = time 6 h, radiation 258 kJ/mol × 10^−6
[22] = time 8 h, radiation 344 kJ/mol × 10^−6

decomp (%) ([1]; time 0 h, no added alkene): 0%
decomp (%) [1, 5]: 16%
decomp (%) [1, 6]: 34%
decomp (%) [1, 7]: 46%
decomp (%) [1, 8]: 56%
Compound: SiPc[OC(O)CH2(CH2CH═CH)6CH2CH3]2 [Pc 300]
solubility (in words) [2]: soluble in CH2Cl2, dimethylformamide, pyridine and toluene, slightly soluble in hexanes, and insoluble in methanol

Compound: CC/C=C\C/C=C\C/C=C\CCCCCCCC(=O)O.CC/C=C\C/C=C\C/C=C\CCCCCCCC(=O)O.CN(C)CCC[Si](C)(C)O[Si]1(O[Si](C)(C)CCCN(C)C)n2c3c4ccccc4c2N=C2N=C(N=c4c5ccccc5c(n41)=NC1=NC(=N3)c3ccccc31)c1ccccc12 [Pc 290, SiPc[OSi(CH3)2(CH2)3NH(CH3)2]2^2+ [OC(O)(CH2)6(CH2CH═CH)3CH2CH3]2]
solubility (in words) [2]: soluble in ethanol, CH2Cl2 and dimethylformamide, moderately soluble in toluene, and insoluble in hexanes

decomp (%) ([1]; time 0 h, no added alkene): 0%
decomp (%) [1, 5]: 0%
decomp (%) [1, 6]: 0%
decomp (%) [1, 7]: 0%
decomp (%) [1, 8]: 0%
Compound: C=C[Si](C=C)(C=C)O[Si]1(O[Si](C=C)(C=C)C=C)n2c3c4ccccc4c2N=C2N=C(N=c4c5ccccc5c(n41)=NC1=NC(=N3)c3ccccc31)c1ccccc12 [Pc 279, SiPc[OSi(CH═CH2)3]2]
photostability (in words) ([1]; white light, toluene, no added alkene): quite stable, remaining unchanged during 8 hours of irradiation
solubility (in words) [2]: soluble in CH2Cl2, dimethylformamide, pyridine and toluene, and insoluble in hexanes and methanol

Compound: ZnPc[2,3-O(C2H4CH(CH3)CH2)2C2H4CH(CH3)2]2 [Pc 275]
solubility (in words) [2]: slightly soluble in CH2Cl2, dimethylformamide, toluene, and hexanes

Compound: CC(C)CCCC(C)CCCC(C)CCOc1cc2c(cc1OCCC(C)CCCC(C)CCCC(C)C)-c1nc-2nc2[nH]c(nc3nc(nc4[nH]c(n1)c1ccccc41)-c1ccccc1-3)c1ccccc21 (centres unmarked) [Pc 272, H2Pc[2,3-O(C2H4CH(CH3)CH2)2C2H4CH(CH3)2]2]
solubility (in words) [2]: soluble in CH2Cl2 and toluene, and slightly soluble in dimethylformamide and hexanes

decomp (%) of Pc 4 [3, 9]: 0%
decomp (%) of Pc 4 [3, 10]: 0%
decomp (%) of Pc 4 [3, 11]: 50%
decomp (%) of Pc 4 [3, 12]: 57%
decomp (%) of Pc 4 [3, 13]: 75%
decomp (%) of Pc 4 [3, 14]: 81%
decomp (%) of Pc 4 [3, 15]: 87%
decomp (%) of Pc 4 [3, 16]: 92%
decomp (%) of Pc 4 [3, 17]: 94%
decomp (%) of Pc 4 [3, 18]: 96%
Compound: CC(C)=CCC/C(C)=C/CC/C(C)=C/CC/C=C(\C)CC/C=C(\C)CCC=C(C)C [squalene]

effectiveness of alkene in decreasing photostability of Pc 4 (in words) [3]: most effective
decomp (%) of Pc 4 [3, 9]: 0%
decomp (%) of Pc 4 [3, 10]: 0%
decomp (%) of Pc 4 [3, 11]: 10%
decomp (%) of Pc 4 [3, 12]: 87%
decomp (%) of Pc 4 [3, 13]: 14%
decomp (%) of Pc 4 [3, 14]: 98%
decomp (%) of Pc 4 [3, 15]: 21%
decomp (%) of Pc 4 [3, 16]: 99%
decomp (%) of Pc 4 [3, 17]: 30%
decomp (%) of Pc 4 [3, 18]: 99%
Compound: CC(C)=CCC/C(C)=C/CO [geraniol]

Compound: CC/C=C\C/C=C\C/C=C\C/C=C\C/C=C\C/C=C\CCC(=O)O.CC/C=C\C/C=C\C/C=C\C/C=C\C/C=C\C/C=C\CCC(=O)O.CN(C)CCC[Si](C)(C)O[Si]1(O[Si](C)(C)CCCN(C)C)n2c3c4ccccc4c2N=C2N=C(N=c4c5ccccc5c(n41)=NC1=NC(=N3)c3ccccc31)c1ccccc12 [Pc 292, SiPc[OSi(CH3)2(CH2)3NH(CH3)2]2^2+ [OC(O)CH2(CH2CH═CH)6CH2CH3]2^−]
decomp (%) ([1]; time 0 h, no added alkene): 0%
decomp (%) [1, 5]: 20%
decomp (%) [1, 6]: 21%
decomp (%) [1, 7]: 22%
decomp (%) [1, 8]: 22%
solubility (in words) [2]: soluble in ethanol, CH2Cl2 and dimethylformamide, moderately soluble in toluene, and insoluble in hexanes

Compound: SiPc[OC(O)(CH2)2(CH2CH═CH)4(CH2)4CH3]2 [Pc 299]
decomp (%) ([1]; time 0 h, no added alkene): 0%
decomp (%) [1, 5]: 7% and 12%
decomp (%) [1, 6]: 12% and 21%
decomp (%) [1, 7]: 14% and 27%
decomp (%) [1, 8]: 17% and 33%
solubility (in words) [2]: soluble in CH2Cl2, dimethylformamide, pyridine and toluene, slightly soluble in hexanes, and insoluble in methanol

decomp (%) of Pc 4 [3, 10]: 0%
decomp (%) of Pc 4 [3, 12]: 40%
decomp (%) of Pc 4 [3, 14]: 72%
decomp (%) of Pc 4 [3, 16]: 89%
decomp (%) of Pc 4 [3, 18]: 99%
Compound: CCCCC/C=C\C/C=C\CCCCCCCC(=O)O [linoleic acid]

effectiveness of alkene in decreasing photostability of Pc 4 (in words) [3]: most effective
decomp (%) of Pc 4 [3, 9]: 0%
decomp (%) of Pc 4 [3, 10]: 0%
decomp (%) of Pc 4 [3, 11]: 13%
decomp (%) of Pc 4 [3, 12]: 79%
decomp (%) of Pc 4 [3, 13]: 20%
decomp (%) of Pc 4 [3, 14]: 93%
decomp (%) of Pc 4 [3, 15]: 38%
decomp (%) of Pc 4 [3, 16]: 99%
decomp (%) of Pc 4 [3, 17]: 50%
decomp (%) of Pc 4 [3, 18]: 99%
Compound: CC(C)=CCC/C(C)=C/CC/C(C)=C/CO [farnesol]

Compound: SiPc[O(CH2)4CH3]2 [Pc 307]
stability in the dark ([1]; in the dark): stable in the dark
decomp (%) ([1]; time 0 h, no added alkene): 0%
decomp (%) [1, 5]: 23%
decomp (%) [1, 6]: 55%
decomp (%) [1, 7]: 80%
decomp (%) [1, 8]: 90%
solubility (in words) [2]: soluble in CH2Cl2, dimethylformamide, pyridine and toluene, and insoluble in hexanes and methanol

Compound: CCCCCCCC/C=C\CCCCCCCC(=O)O[Si]1(OC(=O)CCCCCCC/C=C\CCCCCCCC)n2c3c4ccccc4c2N=C2N=C(N=c4c5ccccc5c(n41)=NC1=NC(=N3)c3ccccc31)c1ccccc12 [Pc 295, SiPc[OC(O)(CH2)7CH═CH(CH2)7CH3]2]
decomp (%) ([1]; time 0 h, no added alkene): 0%
decomp (%) [1, 5]: 2%
decomp (%) [1, 6]: 3%
decomp (%) [1, 7]: 3%
decomp (%) [1, 8]: 4%
solubility (in words) [2]: soluble in CH2Cl2, dimethylformamide, pyridine and toluene, slightly soluble in hexanes, and insoluble in methanol

Compound: CN(C)CCC[Si](C)(C)O[Si]1(O)n2c3c4ccccc4c2N=C2N=C(N=c4c5ccccc5c(n41)=NC1=NC(=N3)c3ccccc31)c1ccccc12 (centres unmarked) [Pc 4, HOSiPcOSi(CH3)2(CH2)3N(CH3)2]
decomp (%) ([4]; time 0 h): 0%
decomp (%) [4, 19]: 57%
decomp (%) [4, 20]: 81%
decomp (%) [4, 21]: 92%
decomp (%) [4, 22]: 96%
decomp (%) ([1]; time 0 h, no added alkene): 0%
decomp (%) [1, 5]: 11%
decomp (%) [1, 6]: 12%
decomp (%) [1, 7]: 12%
decomp (%) [1, 8]: 13%

Compound: CC1=C(/C=C/C(C)=C/C=C/C(C)=C/C(=O)O)C(C)(C)CCC1.CC1=C(/C=C/C(C)=C/C=C/C(C)=C/C(=O)O)C(C)(C)CCC1.CN(C)CCC[Si](C)(C)O[Si]1(O[Si](C)(C)CCCN(C)C)n2c3c4ccccc4c2N=C2N=C(N=c4c5ccccc5c(n41)=NC1=NC(=N3)c3ccccc31)c1ccccc12 [Pc 293, SiPc[OSi(CH3)2(CH2)3NH(CH3)2]2^2+ [OC(O)(CH═C(CH3)CH═CH)2C6H6(CH3)3]2]
solubility (in words) [2]: soluble in ethanol, CH2Cl2 and dimethylformamide, moderately soluble in toluene, and insoluble in hexanes

Compound: SiNc[OSi(CH3)2(CH2)3N(CH3)2]2 [Compound 41]
solubility (in words) [2]: soluble in CH2Cl2, dimethylformamide, and toluene, and insoluble in hexanes

Compound: HOSiPcOSi(CH3)2(CH2)3N(C2H5)2 [Pc 34]
solubility (in words) [2]: soluble in CH2Cl2, dimethylformamide, and toluene, and insoluble in hexanes

decomp (%) of Pc 4 [3, 10]: 0%
decomp (%) of Pc 4 [3, 12]: 23%
decomp (%) of Pc 4 [3, 14]: 49%
decomp (%) of Pc 4 [3, 16]: 69%
decomp (%) of Pc 4 [3, 18]: 83%
Compound: C1=C\CC/C=C\CC/1 [1,5-cyclooctadiene]

Compound: CoPc[2,3-O(C2H4CH(CH3)CH2)2C2H4CH(CH3)2]2 [Pc 273]
solubility (in words) [2]: slightly soluble in CH2Cl2, dimethylformamide, toluene, and hexanes

decomp (%) ([4]; time 0 h): 0%
decomp (%) [4, 19]: 9%
decomp (%) [4, 20]: 14%
decomp (%) [4, 21]: 20%
decomp (%) [4, 22]: 26%
Compound: CCCCCC[Si](CCCCCC)(CCCCCC)O[Si]1(O[Si](CCCCCC)(CCCCCC)CCCCCC)n2c3c4ccccc4c2N=C2N=C(N=c4c5ccccc5c(n41)=NC1=NC(=N3)c3ccccc31)c1ccccc12 [Pc 162, SiPc(OSiHx3)2]

decomp (%) ([4]; time 0 h): 0%
decomp (%) [4, 19]: 5%
decomp (%) [4, 20]: 9%
decomp (%) [4, 21]: 13%
decomp (%) [4, 22]: 17%
Compound: CC[Si](CC)(CC)O[Si]1(O[Si](CC)(CC)CC)n2c3c4ccccc4c2N=C2N=C(N=c4c5ccccc5c(n41)=NC1=NC(=N3)c3ccccc31)c1ccccc12 [Pc 281, SiPc(OSiEt3)2]

Compound: NiPc[2,3-O(C2H4CH(CH3)CH2)2C2H4CH(CH3)2]2 [Pc 274]
solubility (in words) [2]: slightly soluble in CH2Cl2, dimethylformamide, toluene, and hexanes

decomp (%) ([4]; time 0 h): 0%
decomp (%) [4, 19]: 3%
decomp (%) [4, 20]: 4%
decomp (%) [4, 21]: 6%
decomp (%) [4, 22]: 7%
Compound: CCC[Si](CCC)(CCC)O[Si]1(O[Si](CCC)(CCC)CCC)n2c3c4ccccc4c2N=C2N=C(N=c4c5ccccc5c(n41)=NC1=NC(=N3)c3ccccc31)c1ccccc12 [Pc 282, SiPc(OSiPr3)2]
